molecular target: T1, rat CB2 receptor (rCB2) (Rattus norvegicus, UniProt Q9QZN9)
T1 sequence (Q9QZN9 1-360): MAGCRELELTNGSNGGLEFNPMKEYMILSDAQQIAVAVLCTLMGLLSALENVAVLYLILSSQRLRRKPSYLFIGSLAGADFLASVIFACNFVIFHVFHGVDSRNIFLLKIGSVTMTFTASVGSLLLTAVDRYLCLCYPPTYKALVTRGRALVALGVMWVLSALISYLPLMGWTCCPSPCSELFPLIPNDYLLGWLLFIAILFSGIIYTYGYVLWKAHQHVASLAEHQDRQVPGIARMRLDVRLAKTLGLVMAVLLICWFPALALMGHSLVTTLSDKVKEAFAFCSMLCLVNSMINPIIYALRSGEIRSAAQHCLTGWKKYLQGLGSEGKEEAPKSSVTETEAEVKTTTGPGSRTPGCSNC

Compound	EC50
CC(C)(C)OC(=O)N1CCn2c(-c3ccc(Cl)cc3)nc(C(=O)N[C@H](CO)C(C)(C)C)c2C1 (stereo in doubt) [Compound 34, tert-butyl 3-(4-chlorophenyl)-1-(1-hydroxy-3,3-dimethylbutan-2-ylcarbamoyl)-5,6-dihydroimidazo[1,5-a]pyrazine-7(8H)-carboxylate]	10 to 100 nM
CNC(=O)[C@@H](NC(=O)c1nc(-c2cccc(C(F)(F)F)c2)n2c1CNCC2)C(C)(C)C [Compound 3, (S)-N-(3,3-dimethyl-1-(methylamino)-1-oxobutan-2-yl)-3-(3-(trifluoromethyl)phenyl)-5,6,7,8-tetrahydroimidazo[1,5-a]pyrazin-1-carboxamide]	10 to 100 nM
CNC(=O)[C@@H](NC(=O)c1nc(-c2ccc(C(F)(F)F)cc2)n2c1CNCC2)C(C)(C)C [Compound 5, (S)-N-(3,3-dimethyl-1-(methylamino)-1-oxobutan-2-yl)-3-(4-(trifluoromethyl)phenyl)-5,6,7,8-tetrahydroimidazo[1,5-a]pyrazin-1-carboxamide]	10 to 100 nM
CNC(=O)[C@@H](NC(=O)c1nc(-c2ccc(F)c(C)c2)n2c1CNCC2)C(C)(C)C [Compound 7, (S)-N-(3,3-dimethyl-1-(methylamino)-1-oxobutan-2-yl)-3-(4-fluoro-3-methylphenyl)-5,6,7,8-tetrahydroimidazo[1,5-a]pyrazin-1-carboxamide]	10 to 100 nM
CC(C)(C)OC(=O)N1CCn2c(-c3ccccc3)nc(C(=O)NC3C4(C)CCC(C4)C3(C)C)c2C1 (centres unmarked) [Compound 30, tert-butyl 3-phenyl-1-(1,3,3-trimethylbicyclo[2.2.1]heptan-2-ylcarbamoyl)-5,6-dihydroimidazo[1,5-a]pyrazine-7(8H)-carboxylate]	10 to 100 nM
CC(C)(C)OC(=O)N1CCn2c(-c3ccccc3)nc(C(=O)NC3CCCCC3)c2C1 [Compound 36, tert-butyl 1-(cyclohexylcarbamoyl)-3-phenyl-5,6-dihydroimidazo[1,5-a]pyrazine-7(8H)-carboxylate]	10 to 100 nM
C[C@@H](NC(=O)c1nc(-c2ccccc2)n2c1CN(C(=O)OC(C)(C)C)CC2)C1CCCCC1 [Compound 37, (R)-tert-butyl 1-(1-cyclohexylethylcarbamoyl)-3-phenyl-5,6-dihydroimidazo[1,5-a]pyrazine-7(8H)-carboxylate]	10 to 100 nM
CNC(=O)[C@@H](NC(=O)c1nc(-c2ccc(Cl)cc2)n2c1CN(C)CC2)C(C)(C)C [Compound 49, (S)-3-(4-chlorophenyl)-N-(3,3-dimethyl-1-(methylamino)-1-oxobutan-2-yl)-7-methyl-5,6,7,8-tetrahydroimidazo[1,5-a]pyrazine-1-carboxamide]	10 to 100 nM
CC(C)CN1CCn2c(-c3ccccc3)nc(C(=O)N[C@H](C)C(C)(C)C)c2C1 [Compound 52, (R)-N-(3,3-dimethylbutan-2-yl)-7-isobutyl-3-phenyl-5,6,7,8-tetrahydrimidazo[1,5-a]pyrazine-1-carboxamide]	0.1 to 10 nM
CC(C)CN1CCn2c(-c3ccccc3)nc(C(=O)N[C@@H](C)C(C)(C)C)c2C1 [Compound 53, (S)-N-(3,3-dimethylbutan-2-yl)-7-isobutyl-3-phenyl-5,6,7,8-tetrahydroimidazo[1,5-a]pyrazine-1-carboxamide]	10 to 100 nM
CNC(=O)[C@@H](NC(=O)c1nc(-c2ccccc2)n2c1CN(CCC(C)(C)C)CC2)C(C)(C)C [Compound 54, (S)-N-(3,3-dimethyl-1-(methylamino)-1-oxobutan-2-yl)-7-(3,3-dimethylbutyl)-3-phenyl-5,6,7,8-tetrahydroimidazo[1,5-a]pyrazine-1-carboxamide]	10 to 100 nM
CNC(=O)[C@@H](NC(=O)c1nc(-c2ccccc2)n2c1CN(CC1CC1)CC2)C(C)(C)C [Compound 56, (S)-7-(cyclopropylmethyl)-N-(3,3-dimethyl-1-(methylamino)-1-oxobutan-2-yl)-3-phenyl-5,6,7,8-tetrahydroimidazo[1,5-a]pyrazine-1-carboxamide]	10 to 100 nM
CC(C)CN1CCn2c(-c3ccccc3)nc(C(=O)NCC(C)(C)C)c2C1 [Compound 58, 7-isobutyl-N-neopentyl-3-phenyl-5,6,7,8-tetrahydroimidazo[1,5-a]pyrazine-1-carboxamide]	10 to 100 nM
CC(C)CN1CCn2c(-c3ccccc3)nc(C(=O)N[C@H](CO)C(C)(C)C)c2C1 [Compound 60, (S)-N-(1-hydroxy-3,3-dimethylbutan-2-yl)-7-isobutyl-3-phenyl-5,6,7,8-tetrahydroimidazo[1,5-a]pyrazine-1-carboxamide]	10 to 100 nM
CNC(=O)[C@@H](NC(=O)c1nc(-c2ccccc2)n2c1CN(Cc1ccco1)CC2)C(C)(C)C [Compound 64, (S)-N-(3,3-dimethyl-1-(methylamino)-1-oxobutan-2-yl)-7-(furan-2-ylmethyl)-3-phenyl-5,6,7,8-tetrahydroimidazo[1,5-a]pyrazine-1-carboxamide]	10 to 100 nM
CC(C)CN1CCn2c(-c3ccccc3)nc(C(=O)N[C@@H](CO)C(C)(C)C)c2C1 [Compound 68, (R)-N-(1-hydroxy-3,3-dimethylbutan-2-yl)-7-isobutyl-3-phenyl-5,6,7,8-tetrahydroimidazo[1,5-a]pyrazine-1-carboxamide]	0.1 to 10 nM
CNC(=O)[C@@H](NC(=O)c1nc(-c2ccccc2)n2c1CN(Cc1cccn1C)CC2)C(C)(C)C [Compound 71, (S)-N-(3,3-dimethyl-1-(methylamino)-1-oxobutan-2-yl)-7-((1-methyl-1H-pyrrol-2-yl)methyl)-3-phenyl-5,6,7,8-tetrahydroimidazo[1,5-a]pyrazine-1-carboxamide]	10 to 100 nM
CNC(=O)[C@@H](NC(=O)c1nc(-c2ccsc2)n2c1CN(CC1CC1)CC2)C(C)(C)C [Compound 74, (S)-7-(cyclopropylmethyl)-N-(3,3-dimethyl-1-(methylamino)-1-oxobutan-2-yl)-3-(thiophen-3-yl)-5,6,7,8-tetrahydroimidazo[1,5-a]pyrazine-1-carboxamide]	10 to 100 nM
CC(C)CN1CCn2c(-c3ccccc3)nc(C(=O)N[C@H](C(=O)N(C)C)C(C)(C)C)c2C1 [Compound 80, (S)-N-(1-(dimethylamino)-3,3-dimethyl-1-oxobutan-2-yl)-7-isobutyl-3-phenyl-5,6,7,8-tetrahydroimidazo[1,5-a]pyrazine-1-carboxamide]	10 to 100 nM
CC(C)(C)[C@@H](CO)NC(=O)c1nc(-c2ccccc2)n2c1CN(CC1CC1)CC2 [Compound 84, (S)-7-(cyclopropylmethyl)-N-(1-hydroxy-3,3-dimethylbutan-2-yl)-3-phenyl-5,6,7,8-tetrahydroimidazo[1,5-a]pyrazine-1-carboxamide]	10 to 100 nM
CNC(=O)[C@@H](NC(=O)c1nc(-c2ccccc2)n2c1CN(C(C)C)CC2)C(C)(C)C [Compound 85, (S)-N-(3,3-dimethyl-1-(methylamino)-1-oxobutan-2-yl)-7-isopropyl-3-phenyl-5,6,7,8-tetrahydroimidazo[1,5-a]pyrazine-1-carboxamide]	10 to 100 nM
Cc1noc([C@@H](NC(=O)c2nc(-c3ccccc3)n3c2CN(C)CC3)C(C)(C)C)n1 [Compound 87, (S)-N-(2,2-dimethyl-1-(3-methyl-1,2,4-oxadiazol-5-yl)propyl)-7-methyl-3-phenyl-5,6,7,8-tetrahydroimidazo[1,5-a]pyrazine-1-carboxamide]	10 to 100 nM
Cc1noc([C@@H](NC(=O)c2nc(-c3ccccc3)n3c2CN(CC2CC2)CC3)C(C)(C)C)n1 [Compound 88, (S)-7-(cyclopropylmethyl)-N-(2,2-dimethyl-1-(3-methyl-1,2,4-oxadiazol-5-yl)propyl)-3-phenyl-5,6,7,8-tetrahydroimidazo[1,5-a]pyrazine-1-carboxamide]	10 to 100 nM
Cc1noc([C@@H](NC(=O)c2nc(-c3ccccc3)n3c2CN(C(C)C)CC3)C(C)(C)C)n1 [Compound 89, (S)-N-(2,2-dimethyl-1-(3-methyl-1,2,4-oxadiazol-5-yl)propyl)-7-isopropyl-3-phenyl-5,6,7,8-tetrahydrimidazo[1,5-a]pyrazine-1-carboxamide]	0.1 to 10 nM
Cc1noc([C@@H](NC(=O)c2nc(-c3ccccc3)n3c2CN(CC(C)C)CC3)C(C)(C)C)n1 [Compound 90, (S)-N-(2,2-dimethyl-1-(3-methyl-1,2,4-oxadiazol-5-yl)propyl)-7-isobutyl-3-phenyl-5,6,7,8-tetrahydroimidazo[1,5-a]pyrazine-1-carboxamide]	0.1 to 10 nM
CNC(=O)[C@@H](NC(=O)c1nc(-c2ccccc2)n2c1CN(S(C)(=O)=O)CC2)C(C)(C)C [Compound 92, (S)-N-(3,3-dimethyl-1-(methylamino)-1-oxobutan-2-yl)-7-(methylsulfonyl)-3-phenyl-5,6,7,8-tetrahydroimidazo[1,5-a]pyrazine-1-carboxamide]	10 to 100 nM
CNC(=O)[C@@H](NC(=O)c1nc(-c2ccccc2)n2c1CN(S(=O)(=O)c1ccc(F)cc1)CC2)C(C)(C)C [Compound 93, (S)-N-(3,3-dimthyl-1-(methylamino)-1-oxobutan-2-yl)-7-(4-fluorophenylsulfonyl)-3-phenyl-5,6,7,8-tetrahydroimidazo[1,5-a]pyrazine-1-carboxamide]	10 to 100 nM
CNC(=O)[C@@H](NC(=O)c1nc(-c2ccccc2)n2c1CN(S(=O)(=O)C(C)C)CC2)C(C)(C)C [Compound 94, (S)-N-(3,3-dimethyl-1-(methylamino)-1-oxobutan-2-yl)-7-(isopropylsulfonyl)-3-phenyl-5,6,7,8-tetrahydrimidazo[1,5-a]pyrazine-1-carboxamide]	10 to 100 nM
CNC(=O)[C@@H](NC(=O)c1nc(-c2ccccc2)n2c1CN(S(=O)(=O)CC(C)C)CC2)C(C)(C)C [Compound 95, (S)-N-(3,3-dimethyl-1-(methylamino)-1-oxobutan-2-yl)-7-(isobutylsulfonyl)-3-phenyl-5,6,7,8-tetrahydroimidazo[1,5-a]pyrazine-1-carboxamide]	10 to 100 nM
